Data: patent publication US11510943B2, “Chemotherapeutic agent comprising combination of alexidine dihydrochloride and sodium pentaborate pentahydrate” (YEDITEPE UNIVERSITESI, priority 2018, dated 2022)
“Also recorded” adds a separate entry of the source. Structures can show the parent of a compound that is named as a salt.

Assays:
[1] = system: pancreatic cancer cell (Psn-1); assay: colorimetric tetrazolium salt (MTS) viability assay, Psn-1
Text: (§1) This value is 10-20% more than the chemotherapeutic effect of alexidine dihydrochloride alone.

[2] = system: healthy human pancreatic cell (hTert-HPNE); assay: colorimetric tetrazolium salt (MTS) viability assay, hTert-HPNE; assay type: cell-based; settings: AD alone, 2.5 μM, 48 hours of incubation
[3] = system: healthy intervertebral disc cell (HNPC); assay: colorimetric tetrazolium salt (MTS) viability assay, HNPC; assay type: cell-based; settings: AD alone, 2.5 μM, 48 hours of incubation
[4] = system: pancreatic cancer cell (MIA PaCa-2); assay: colorimetric tetrazolium salt (MTS) viability assay, MIA PaCa-2; settings: Homo sapiens, MIA PaCa-2, 48 h, read-out: viability of MIA PaCa-2 cells
Text: as §1

[5] = solubility in dimethylsulfoxide; assay type: physicochemical; settings: organic solvent or mixture
Procedure: The chemotherapeutic agent of the present invention comprises a combination of alexidine dihydrochloride and sodium pentaborate pentahydrate and induces apoptosis on pancreatic cancer cells. Alexidine dihydrochloride is a compound having a molecular weight of 581.71 gram/mol and the chemical formula of C26H56N10 ·2HCl and it is dissolved in dimethylsulfoxide of 10 mg/ml or above.

[6] = system: pancreatic cancer cell (AsPc-1); assay: colorimetric tetrazolium salt (MTS) viability assay, AsPc-1
Text: as §1

[7] = system: healthy cells (hTert-HPNE, HNPC, hFSSCs, HUVEC); assay: toxicity analysis (MTS viability assay), healthy cells together; assay type: cell-based
[8] = system: pancreatic cancer cells (MIA PaCa-2, AsPc-1 and Psn-1); assay: colorimetric tetrazolium salt (MTS) viability assay, pancreatic cancer cells together; settings: Pancreatic cancer cell, 48 h, read-out: viability of the pancreatic cancer cells
Text: as §1

[9] = Procedure: The sodium pentaborate pentahydrate compound was dissolved in the appropriate medium for the cell that was used and filtered to enable sterilization.
[10] = AD alone 2.5 μM, 48-hour incubation, dihydrochloride

CCCCC(CC)CNC(=N)NC(=N)NCCCCCCNC(=N)NC(=N)NCC(CC)CCCC (stereo not shown) [AD, alexidine dihydrochloride]
viability of Psn-1 cells [1, 10]: 51.6% | viability at 2.5 µM ([1]; Homo sapiens, PSN1, 48 h, read-out: viability of Psn-1 cells, AD alone 2.5 μM, 48-hour incubation): 45% | effect on healthy pancreas cell (hTert-HPNE) [2]: not affected | effect on healthy intervertebral disc cells (HNPC) [3]: not affected | viability at 2.5 µM [4]: 53% | solubility [5]: ≥ 10000 µg/mL | viability of AsPc-1 cells [6, 10]: 58.3% | viability at 2.5 µM ([6]; Homo sapiens, ASPC1, 48 h, read-out: viability of AsPc-1 cells, AD alone 2.5 μM, 48-hour incubation): 58% | effect on healthy cells ([7]; AD alone 2.5 μM, 48-hour incubation, hTert-HPNE and HNPC, dihydrochloride): did not harm the healthy cells; also recorded: do not kill the healthy cells | viability at 2.5 µM [8]: 50%

sodium pentaborate pentahydrate [NAB]
dissolution in the medium ([9]; concentrations used (100-1000 μM), no additional solvent): dissolved instantly | precipitate formation in the medium ([9]; medium pH 7.4, 72 hours): did not form sodium pentaborate pentahydrate precipitate | average vitality ([7]; NAB alone 1000 μM, incubated for 48 hours, hTert-HPNE, HNPC, hFSSCs, HUVEC): 70%
